Assay results: ChEMBL document CHEMBL1201862, “PubChem BioAssay data set” (2004)
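Five compound concentrations were applied to cells in 96-well plates for 48 hours; endpoints were derived by simple linear interpolation of the resulting dose-response curve. GI50 = concentration required for 50% inhibition of growth.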 Calls of active or inactive are those of the source. No stated cut-off is given here; in the data, active = GI50 up to about 1.1 µM and inactive = higher.

Key:
Test in all cases: NCI tumour cell line growth inhibition, 48 h
A549 = tested on: A549
ACHN = tested on: ACHN
EKVX = tested on: EKVX
HL-60 = tested on: HL-60
HOP-62 = tested on: HOP-62
OVCAR-8 = tested on: OVCAR-8
RXF 393 = tested on: RXF 393
SF-268 = tested on: SF-268
SK-MEL-28 = tested on: SK-MEL-28
SK-MEL-5 = tested on: SK-MEL-5
SN12C = tested on: SN12C
TK-10 = tested on: TK-10
UACC-62 = tested on: UACC-62
HT-29 = tested on: HT-29
SNB-19 = tested on: SNB-19
SR = tested on: SR

Measured: GI50

O=C(NCCOCCO)c1ccc(O)cc1
inactive: A549 > 100 µM | ACHN > 100 µM | EKVX 20.4 µM | HL-60 > 100 µM | HOP-62 > 100 µM | OVCAR-8 > 100 µM | RXF 393 > 100 µM | SF-268 > 100 µM | SK-MEL-28 > 100 µM | SK-MEL-5 > 100 µM | SN12C > 100 µM | TK-10 > 100 µM | UACC-62 > 100 µM

O=C1c2ccccc2C2(O)Nc3c(ccc4ccccc34)C12O (stereo not given)
inactive: A549 > 100 µM | ACHN > 100 µM | EKVX > 100 µM | HL-60 97.1 µM | HOP-62 > 100 µM | HT-29 > 100 µM | OVCAR-8 > 100 µM | RXF 393 > 100 µM | SF-268 > 100 µM | SK-MEL-28 > 100 µM | SK-MEL-5 72.8 µM | SN12C > 100 µM | SNB-19 85.3 µM | TK-10 > 100 µM | UACC-62 > 100 µM

O=C1OC(/C=C/c2ccccc2)C(=O)C1=O (stereo not given)
inactive: A549 > 100 µM | ACHN > 100 µM | EKVX > 100 µM | HL-60 > 100 µM | HOP-62 > 100 µM | HT-29 > 100 µM | RXF 393 > 100 µM | SF-268 > 100 µM | SK-MEL-28 > 100 µM | SNB-19 > 100 µM | TK-10 > 100 µM | UACC-62 > 100 µM

CN(C)c1ccc(/C=c2\sc3nc4ccccc4n3c2=O)cc1
inactive: A549 > 100 µM | ACHN > 100 µM | EKVX > 100 µM | HL-60 > 100 µM | HOP-62 > 100 µM | HT-29 > 100 µM | OVCAR-8 > 100 µM | RXF 393 77.6 µM | SF-268 > 100 µM | SK-MEL-28 > 100 µM | SK-MEL-5 > 100 µM | SN12C > 100 µM | SNB-19 > 100 µM | TK-10 > 100 µM | UACC-62 > 100 µM

CCCCCCCCCCCCCCCCOC(=O)C(C(=O)OCCCCCCCCCCCCCCCC)[N+](C)(C)CCOC(C)=O
inactive: A549 20.5 µM | ACHN 19.2 µM | EKVX 21 µM | HL-60 2.11 µM | HOP-62 10.9 µM | HT-29 11.1 µM | OVCAR-8 17.7 µM | RXF 393 2.99 µM | SF-268 17.9 µM | SK-MEL-28 24 µM | SK-MEL-5 19.7 µM | SN12C 18.4 µM | SNB-19 13.4 µM | TK-10 13 µM | UACC-62 21.5 µM

c1ccc(/N=C2\c3ccccc3C3=NCCCN32)cc1
inactive: A549 42.3 µM | ACHN 29.4 µM | EKVX 30.6 µM | HOP-62 67.6 µM | HT-29 31.1 µM | OVCAR-8 > 100 µM | RXF 393 34.7 µM | SF-268 81.5 µM | SK-MEL-28 > 100 µM | SK-MEL-5 28 µM | SN12C > 100 µM | SNB-19 85.9 µM | TK-10 50 µM | UACC-62 61.5 µM

CCC(C)c1cccc(C)c1NC(=O)C(=O)Cc1nc2ccccc2s1 (stereo not given)
inactive: A549 > 100 µM | ACHN > 100 µM | EKVX > 100 µM | HL-60 > 100 µM | HOP-62 > 100 µM | HT-29 > 100 µM | OVCAR-8 > 100 µM | RXF 393 > 100 µM | SF-268 > 100 µM | SK-MEL-28 > 100 µM | SK-MEL-5 > 100 µM | SN12C > 100 µM | SNB-19 > 100 µM | TK-10 > 100 µM | UACC-62 > 100 µM

Cn1nc(-c2ccccc2)c2c(/C=C/c3ccc(F)cc3)onc2c1=O
inactive: A549 13.6 µM | ACHN 24.1 µM | EKVX > 100 µM | HL-60 5.92 µM | HOP-62 > 100 µM | HT-29 29.3 µM | OVCAR-8 38.1 µM | RXF 393 23.3 µM | SF-268 > 100 µM | SK-MEL-28 > 100 µM | SK-MEL-5 > 100 µM | SN12C 88.1 µM | TK-10 90.6 µM | UACC-62 > 100 µM

COc1ccc(C2CCc3cc4c(cc3/C2=N/OC(C)=O)OCO4)cc1OC (stereo not given)
inactive: A549 18.3 µM | EKVX 29.2 µM | HOP-62 40.3 µM | HT-29 36.2 µM | OVCAR-8 34.4 µM | RXF 393 14 µM | SF-268 12.9 µM | SK-MEL-28 18.4 µM | SK-MEL-5 8.65 µM | SN12C 26.9 µM | SNB-19 39.3 µM | TK-10 39 µM | UACC-62 18.2 µM

Cc1cc(Cl)cc2c1NC(=O)C2=O.O=C(c1ccccc1)C(F)(F)F
inactive: A549 52.2 µM | ACHN 75.7 µM | EKVX 49 µM | HOP-62 > 100 µM | HT-29 78 µM | OVCAR-8 55.5 µM | RXF 393 73.3 µM | SF-268 > 100 µM | SK-MEL-28 93.1 µM | SK-MEL-5 41.7 µM | SN12C 54 µM | SNB-19 72.4 µM | TK-10 57.5 µM | UACC-62 19.9 µM

CC(C)=CCC/C(C)=C/CC/C(C)=C/CC/C=C(\C)CC/C=C(\C)CCC1SC1(C)C (stereo not given)
inactive: A549 > 100 µM | ACHN > 100 µM | EKVX > 100 µM | HL-60 > 100 µM | HOP-62 > 100 µM | HT-29 > 100 µM | OVCAR-8 > 100 µM | RXF 393 > 100 µM | SF-268 > 100 µM | SK-MEL-28 > 100 µM | SK-MEL-5 > 100 µM | SN12C > 100 µM | SNB-19 > 100 µM | TK-10 > 100 µM | UACC-62 > 100 µM

N#CC12CC3(CCC1CCC1(C2)OCCO1)OCCO3 (stereo not given)
inactive: A549 > 100 µM | ACHN > 100 µM | EKVX > 100 µM | HL-60 > 100 µM | HOP-62 > 100 µM | OVCAR-8 > 100 µM | RXF 393 > 100 µM | SF-268 > 100 µM | SK-MEL-28 > 100 µM | SK-MEL-5 > 100 µM | SN12C > 100 µM | SNB-19 > 100 µM | SR > 100 µM | TK-10 > 100 µM | UACC-62 > 100 µM

Nc1ccccc1N
inactive: A549 > 100 µM | ACHN > 100 µM | HL-60 25.6 µM | HOP-62 > 100 µM | HT-29 > 100 µM | OVCAR-8 > 100 µM | RXF 393 > 100 µM | SF-268 > 100 µM | SK-MEL-28 > 100 µM | SK-MEL-5 > 100 µM | SN12C > 100 µM | SNB-19 > 100 µM | SR 32.9 µM | TK-10 > 100 µM | UACC-62 > 100 µM

COc1cc(CC(=O)c2ccc3c(c2)OCO3)cc(OC)c1OC
inactive: A549 > 100 µM | ACHN > 100 µM | EKVX > 100 µM | HL-60 > 100 µM | HOP-62 > 100 µM | HT-29 > 100 µM | OVCAR-8 > 100 µM | RXF 393 62.5 µM | SF-268 > 100 µM | SK-MEL-28 > 100 µM | SK-MEL-5 > 100 µM | SN12C > 100 µM | SNB-19 > 100 µM | TK-10 > 100 µM | UACC-62 > 100 µM
